{"source": "paper PMC5218480", "about": "(PLoS ONE, 2017)", "system": "MV-4-11 cells", "assay": "Gene expression microarray analysis (Affymetrix PrimeView) and GSEA", "format": "cell-based, human", "parameters": "RFU PODN (11730768_x_at) / Fold change /veh PODN (11730768_x_at) / RFU LINC00158 (11744669_a_at) / Fold change /veh LINC00158 (11744669_a_at) / RFU DUSP10 (11751237_a_at) / Fold change /veh DUSP10 (11751237_a_at) / RFU ID3 (11757404_x_at) / Fold change /veh ID3 (11757404_x_at) / RFU PLEKHG5 (11737974_s_at) / Fold change /veh PLEKHG5 (11737974_s_at) / RFU LRRC4B (11730491_at) / Fold change /veh LRRC4B (11730491_at) / RFU GIMAP4 (11747438_a_at) / Fold change /veh GIMAP4 (11747438_a_at) / RFU KRT8 (11758183_x_at) / Fold change /veh KRT8 (11758183_x_at) / RFU CNN1 (11734310_a_at) / Fold change /veh CNN1 (11734310_a_at) / RFU VPS37D (11726825_at) / Fold change /veh VPS37D (11726825_at) / RFU C10orf10 (11716522_x_at) / Fold change /veh C10orf10 (11716522_x_at) / RFU KIR2DL2 /// KIR2DL4 /// KIR2DL5A /// KIR2DL5B /// KIR2DS1 /// KIR2DS2 /// KIR2DS3 /// KIR2DS4 /// KIR3DL3 /// KIR3DL3 /// KIR3DS1 (11738374_at) / Fold change /veh KIR2DL2 /// KIR2DL4 /// KIR2DL5A /// KIR2DL5B /// KIR2DS1 /// KIR2DS2 /// KIR2DS3 /// KIR2DS4 /// KIR3DL3 /// KIR3DL3 /// KIR3DS1 (11738374_at) / RFU C1QL1 (11718748_at) / Fold change /veh C1QL1 (11718748_at) / RFU TMPRSS4 (11747572_a_at) / Fold change /veh TMPRSS4 (11747572_a_at) / RFU HAMP (11756126_x_at) / Fold change /veh HAMP (11756126_x_at) / RFU RNFT2 (11725882_a_at) / Fold change /veh RNFT2 (11725882_a_at) / RFU NR4A2 (11747474_a_at) / Fold change /veh NR4A2 (11747474_a_at) / RFU ABCC12 (11746883_a_at) / Fold change /veh ABCC12 (11746883_a_at) / RFU TMEM136 (11760407_x_at) / Fold change /veh TMEM136 (11760407_x_at) / RFU CLDN22 /// WWC2 (11732394_at) / Fold change /veh CLDN22 /// WWC2 (11732394_at) / RFU HLA-DPB1 (11760878_x_at) / Fold change /veh HLA-DPB1 (11760878_x_at) / RFU SPINT1 (11716480_a_at) / Fold change /veh SPINT1 (11716480_a_at) / RFU GAP43 (11754022_s_at) / Fold change /veh GAP43 (11754022_s_at) / RFU A4GNT (11735810_at) / Fold change /veh A4GNT (11735810_at) / RFU PRB3 (11715151_x_at) / Fold change /veh PRB3 (11715151_x_at) / RFU TUBB4B (11761932_at) / Fold change /veh TUBB4B (11761932_at) / RFU CAPN14 (11732068_a_at) / Fold change /veh CAPN14 (11732068_a_at) / RFU TMCC2 (11721928_a_at) / Fold change /veh TMCC2 (11721928_a_at) / RFU IRGQ (11745062_a_at) / Fold change /veh IRGQ (11745062_a_at) / RFU FAM174B (11720279_a_at) / Fold change /veh FAM174B (11720279_a_at) / RFU TMPRSS4 (11748680_a_at) / Fold change /veh TMPRSS4 (11748680_a_at) / RFU FAM212B (11763350_a_at) / Fold change /veh FAM212B (11763350_a_at) / RFU PLEKHG5 (11743358_a_at) / Fold change /veh PLEKHG5 (11743358_a_at) / RFU ZSCAN30 (11745921_a_at) / Fold change /veh ZSCAN30 (11745921_a_at) / RFU CMKLR1 (11741424_a_at) / Fold change /veh CMKLR1 (11741424_a_at) / RFU LOC101060620 /// MAPK8IP1 (11723275_at) / Fold change /veh LOC101060620 /// MAPK8IP1 (11723275_at) / RFU SPTSSB (11747773_x_at) / Fold change /veh SPTSSB (11747773_x_at) / RFU PRSS12 (11739890_at) / Fold change /veh PRSS12 (11739890_at) / RFU BIN1 (11741810_x_at) / Fold change /veh BIN1 (11741810_x_at) / RFU WNT11 (11732464_a_at) / Fold change /veh WNT11 (11732464_a_at) / RFU C10orf10 (11716521_a_at) / Fold change /veh C10orf10 (11716521_a_at) / RFU C5orf56 (11738089_at) / Fold change /veh C5orf56 (11738089_at) / RFU CYB561 (11721691_x_at) / Fold change /veh CYB561 (11721691_x_at) / RFU ANKRD19P (11752326_a_at) / Fold change /veh ANKRD19P (11752326_a_at) / RFU OR2T12 /// OR2T33 /// OR2T8 (11738714_s_at) / Fold change /veh OR2T12 /// OR2T33 /// OR2T8 (11738714_s_at) / RFU VCAN (11748164_a_at) / Fold change /veh VCAN (11748164_a_at) / RFU JSRP1 (11732532_at) / Fold change /veh JSRP1 (11732532_at) / RFU KRTAP10-11 (11738290_x_at) / Fold change /veh KRTAP10-11 (11738290_x_at) / RFU MYO3A (11730013_a_at) / Fold change /veh MYO3A (11730013_a_at) / RFU EBF3 (11725865_a_at) / Fold change /veh EBF3 (11725865_a_at) / RFU CAMK2N1 (11719241_x_at) / Fold change /veh CAMK2N1 (11719241_x_at) / RFU C5orf56 (11738088_a_at) / Fold change /veh C5orf56 (11738088_a_at) / RFU OLFML3 (11715873_a_at) / Fold change /veh OLFML3 (11715873_a_at) / RFU LOC100653217 /// NTM (11731650_a_at) / Fold change /veh LOC100653217 /// NTM (11731650_a_at) / RFU MAPK11 (11762145_a_at) / Fold change /veh MAPK11 (11762145_a_at) / RFU FIZ1 (11724087_x_at) / Fold change /veh FIZ1 (11724087_x_at) / RFU OASL (11726364_x_at) / Fold change /veh OASL (11726364_x_at) / RFU SOX15 (11748057_x_at) / Fold change /veh SOX15 (11748057_x_at) / RFU CD79A (11719716_a_at) / Fold change /veh CD79A (11719716_a_at) / RFU HIST1H1D (11736915_at) / Fold change /veh HIST1H1D (11736915_at) / RFU CASKIN2 (11723855_a_at) / Fold change /veh CASKIN2 (11723855_a_at) / RFU LOC730098 (11760151_x_at) / Fold change /veh LOC730098 (11760151_x_at) / RFU OR4N2 (11742367_at) / Fold change /veh OR4N2 (11742367_at) / RFU PRRT2 (11749266_a_at) / Fold change /veh PRRT2 (11749266_a_at) / RFU SNX32 (11753110_a_at) / Fold change /veh SNX32 (11753110_a_at) / RFU CDHR5 (11726645_a_at) / Fold change /veh CDHR5 (11726645_a_at) / RFU RCAN1 (11760418_a_at) / Fold change /veh RCAN1 (11760418_a_at) / RFU FAM167A (11723789_a_at) / Fold change /veh FAM167A (11723789_a_at) / RFU FAM26E (11764081_at) / Fold change /veh FAM26E (11764081_at) / RFU ISYNA1 (11749810_s_at) / Fold change /veh ISYNA1 (11749810_s_at) / RFU ACY1 (11761880_at) / Fold change /veh ACY1 (11761880_at) / RFU 11764098_at / Fold change /veh 11764098_at / RFU SAMD14 (11745864_x_at) / Fold change /veh SAMD14 (11745864_x_at) / RFU NPB (11741838_a_at) / Fold change /veh NPB (11741838_a_at) / RFU TMPRSS6 (11731388_a_at) / Fold change /veh TMPRSS6 (11731388_a_at) / RFU KRTAP10-2 (11738614_at) / Fold change /veh KRTAP10-2 (11738614_at) / RFU ARHGAP8 /// PRR5-ARHGAP8 (11727945_x_at) / Fold change /veh ARHGAP8 /// PRR5-ARHGAP8 (11727945_x_at) / RFU KRTAP5-7 /// NADSYN1 (11734609_at) / Fold change /veh KRTAP5-7 /// NADSYN1 (11734609_at) / RFU RASL12 (11751679_a_at) / Fold change /veh RASL12 (11751679_a_at) / RFU CDKN2B (11736163_a_at) / Fold change /veh CDKN2B (11736163_a_at) / RFU PRF1 (11729649_at) / Fold change /veh PRF1 (11729649_at) / RFU, ZNF638 /// ZNF638-IT1 / Fold change vs veh, ZNF638 /// ZNF638-IT1 / RFU, PANK3 / Fold change vs veh, PANK3 / RFU, SH3YL1 / Fold change vs veh, SH3YL1 / RFU, ZEB2 / Fold change vs veh, ZEB2 / RFU, NRIP1 / Fold change vs veh, NRIP1 / RFU, PTTG1IP / Fold change vs veh, PTTG1IP / RFU, CAPN2 / Fold change vs veh, CAPN2 / RFU, MED14 / Fold change vs veh, MED14 / RFU, SNORA58 / Fold change vs veh, SNORA58 / RFU, C1orf63 / Fold change vs veh, C1orf63 / RFU, LRRFIP1 / Fold change vs veh, LRRFIP1 / RFU, NDUFAF7 / Fold change vs veh, NDUFAF7 / RFU, SLC12A2 / Fold change vs veh, SLC12A2 / RFU, IBTK / Fold change vs veh, IBTK / RFU, ESF1 / Fold change vs veh, ESF1 / Fold change vs veh, TMEM50B / RFU, TAOK1 / Fold change vs veh, TAOK1 / RFU, ACBD3 / Fold change vs veh, ACBD3 / RFU, TMA16 / Fold change vs veh, TMA16 / RFU, RWDD3 / Fold change vs veh, RWDD3 / RFU, BCAT1 / Fold change vs veh, BCAT1 / RFU, EDEM3 / Fold change vs veh, EDEM3 / RFU, TMEM33 / Fold change vs veh, TMEM33 / RFU, WDR75 / Fold change vs veh, WDR75 / RFU, AHCTF1 / Fold change vs veh, AHCTF1 / RFU, TFRC / Fold change vs veh, TFRC / RFU, ZDHHC17 / Fold change vs veh, ZDHHC17 / RFU, NOM1 / Fold change vs veh, NOM1 / RFU, ARL8B / Fold change vs veh, ARL8B / RFU, ZBTB11 / Fold change vs veh, ZBTB11 / RFU, TAMM41 / Fold change vs veh, TAMM41 / RFU, KIAA1704 /// LOC100996395 / Fold change vs veh, KIAA1704 /// LOC100996395 / RFU, ING1 / Fold change vs veh, ING1 / RFU, TRMT61B / Fold change vs veh, TRMT61B / RFU, FUBP3 / Fold change vs veh, FUBP3 / RFU, TP53 / Fold change vs veh, TP53 / RFU, TNKS2 / Fold change vs veh, TNKS2 / RFU, ZFP14 / Fold change vs veh, ZFP14 / RFU, ACTR2 / Fold change vs veh, ACTR2 / RFU, PPP3R1 / Fold change vs veh, PPP3R1 / RFU, PIK3R1 / Fold change vs veh, PIK3R1 / RFU, HNRNPA1 / Fold change vs veh, HNRNPA1 / RFU, RNF170 / Fold change vs veh, RNF170 / RFU, ZNF28 / Fold change vs veh, ZNF28 / RFU, RNGTT / Fold change vs veh, RNGTT / RFU, OGT / Fold change vs veh, OGT / RFU, BRD1 / Fold change vs veh, BRD1 / RFU, MARS / Fold change vs veh, MARS / RFU, ZNF655 / Fold change vs veh, ZNF655 / RFU, FAHD1 / Fold change vs veh, FAHD1 / RFU, BDP1 / Fold change vs veh, BDP1 / RFU, LRRCC1 / Fold change vs veh, LRRCC1 / RFU, ARID1A / Fold change vs veh, ARID1A / RFU, ZNF146 / Fold change vs veh, ZNF146 / RFU, ZNF330 / Fold change vs veh, ZNF330 / RFU, GPN3 / Fold change vs veh, GPN3 / RFU, C9orf123 / Fold change vs veh, C9orf123 / RFU, N4BP2L2 / Fold change vs veh, N4BP2L2 / RFU, ARFIP1 / Fold change vs veh, ARFIP1 / RFU, FAM179B / Fold change vs veh, FAM179B / RFU, BCL10 / Fold change vs veh, BCL10 / RFU, UHRF1BP1L / Fold change vs veh, UHRF1BP1L / RFU, BET1 / Fold change vs veh, BET1 / RFU, CNOT2 / Fold change vs veh, CNOT2 / RFU, ZNF268 / Fold change vs veh, ZNF268 / Fold change vs veh, ZNF507 / RFU, DGCR2 / Fold change vs veh, DGCR2 / RFU, WDSUB1 / Fold change vs veh, WDSUB1 / Fold change vs veh, HSP90B1 /// MIR3652 / RFU, ADSS / Fold change vs veh, ADSS / RFU, GK / Fold change vs veh, GK / RFU, ZNF148 / Fold change vs veh, ZNF148 / RFU, TAF9 / Fold change vs veh, TAF9 / RFU, SLC1A5 / Fold change vs veh, SLC1A5 / RFU, SLMO2 / Fold change vs veh, SLMO2 / RFU, ABCC4 / Fold change vs veh, ABCC4 / RFU, LOC101060439 /// RAP1B / Fold change vs veh, LOC101060439 /// RAP1B / RFU, RFX7 / Fold change vs veh, RFX7 / RFU, GTPBP10 / Fold change vs veh, GTPBP10 / RFU, CNEP1R1 / Fold change vs veh, CNEP1R1 / RFU, BIVM-ERCC5 /// ERCC5 / Fold change vs veh, BIVM-ERCC5 /// ERCC5 / RFU, ILF3 / Fold change vs veh, ILF3 / RFU 11762660_at / Fold change /veh 11762660_at / RFU VCAN (11757783_s_at) / Fold change /veh VCAN (11757783_s_at) / RFU DDX43 (11728927_at) / Fold change /veh DDX43 (11728927_at) / RFU KRT8 (11758188_x_at) / Fold change /veh KRT8 (11758188_x_at) / RFU NKD1 (11759106_at) / Fold change /veh NKD1 (11759106_at) / RFU SRD5A1 (11742802_a_at) / Fold change /veh SRD5A1 (11742802_a_at) / RFU TPSAB1 /// TPSB2 (11721975_s_at) / Fold change /veh TPSAB1 /// TPSB2 (11721975_s_at) / RFU GSTM3 (11746129_a_at) / Fold change /veh GSTM3 (11746129_a_at) / RFU IL23R (11737362_x_at) / Fold change /veh IL23R (11737362_x_at) / RFU TMEM51 (11727254_a_at) / Fold change /veh TMEM51 (11727254_a_at) / RFU PIWIL2 (11732686_x_at) / Fold change /veh PIWIL2 (11732686_x_at) / RFU ORM1 (11744905_x_at) / Fold change /veh ORM1 (11744905_x_at) / RFU CCDC152 (11743942_at) / Fold change /veh CCDC152 (11743942_at) / RFU ECM1 (11717891_a_at) / Fold change /veh ECM1 (11717891_a_at) / RFU IL23R (11748794_a_at) / Fold change /veh IL23R (11748794_a_at) / RFU TNFAIP8L3 (11732012_x_at) / Fold change /veh TNFAIP8L3 (11732012_x_at) / RFU MBOAT4 (11741988_at) / Fold change /veh MBOAT4 (11741988_at) / RFU 11764193_at / Fold change /veh 11764193_at / RFU TMEM53 (11763286_at) / Fold change /veh TMEM53 (11763286_at) / RFU MAGEB2 (11727129_at) / Fold change /veh MAGEB2 (11727129_at) / RFU TMEM200A (11744735_a_at) / Fold change /veh TMEM200A (11744735_a_at) / RFU CCDC152 (11751479_a_at) / Fold change /veh CCDC152 (11751479_a_at) / RFU FAM211A (11726209_a_at) / Fold change /veh FAM211A (11726209_a_at) / RFU RGS16 (11746705_a_at) / Fold change /veh RGS16 (11746705_a_at) / RFU VCAN (11755009_s_at) / Fold change /veh VCAN (11755009_s_at) / RFU RHOB (11743442_s_at) / Fold change /veh RHOB (11743442_s_at) / RFU RGS16 (11720943_a_at) / Fold change /veh RGS16 (11720943_a_at) / RFU RGS16 (11720944_at) / Fold change /veh RGS16 (11720944_at) / RFU, VPS4B / Fold change vs veh, VPS4B / RFU, CREB1 / Fold change vs veh, CREB1 / RFU, DNAJC13 / Fold change vs veh, DNAJC13 / RFU, GNAQ / Fold change vs veh, GNAQ / RFU, CDK5R1 / Fold change vs veh, CDK5R1 / RFU, ZRANB3 / Fold change vs veh, ZRANB3 / RFU, CUL4A / Fold change vs veh, CUL4A / RFU, CCNY / Fold change vs veh, CCNY / RFU, UFL1 / Fold change vs veh, UFL1 / RFU, COG3 / Fold change vs veh, COG3 / RFU, DIAPH2 / Fold change vs veh, DIAPH2 / RFU, SKA2 / Fold change vs veh, SKA2 / RFU, AFF3 / Fold change vs veh, AFF3 / RFU, LMF1 / Fold change vs veh, LMF1 / RFU, IPO11 / Fold change vs veh, IPO11 / RFU, DFFB / Fold change vs veh, DFFB / RFU, FOXP1 / Fold change vs veh, FOXP1 / RFU, CARD8 / Fold change vs veh, CARD8 / RFU, STRN3 / Fold change vs veh, STRN3 / RFU, ADK / Fold change vs veh, ADK / RFU, RASSF2 / Fold change vs veh, RASSF2 / RFU, WIPF1 / Fold change vs veh, WIPF1 / RFU, LARP1B / Fold change vs veh, LARP1B / RFU, RASA1 / Fold change vs veh, RASA1 / RFU, RB1 / Fold change vs veh, RB1 / RFU, PPFIA1 / Fold change vs veh, PPFIA1 / RFU, MAT2A / Fold change vs veh, MAT2A / RFU, CCT5 / Fold change vs veh, CCT5 / RFU, WDR92 / Fold change vs veh, WDR92 / RFU, CUX1 / Fold change vs veh, CUX1 / RFU, TTC7A / Fold change vs veh, TTC7A / RFU, TMEM135 / Fold change vs veh, TMEM135 / RFU, DEPTOR / Fold change vs veh, DEPTOR / RFU, CPM / Fold change vs veh, CPM / RFU, DNAJB6 / Fold change vs veh, DNAJB6 / RFU, CACNA2D3 / Fold change vs veh, CACNA2D3 / RFU, DTX4 / Fold change vs veh, DTX4 / RFU, TFCP2 / Fold change vs veh, TFCP2 / RFU, GMCL1 /// GMCL1P1 / Fold change vs veh, GMCL1 /// GMCL1P1 / RFU, AEBP2 / Fold change vs veh, AEBP2 / RFU, SNHG1 /// SNORD22 /// SNORD25 /// SNORD26 /// SNORD27 /// SNORD28 /// SNORD29 /// SNORD31 / Fold change vs veh, SNHG1 /// SNORD22 /// SNORD25 /// SNORD26 /// SNORD27 /// SNORD28 /// SNORD29 /// SNORD31 / Fold change (Aza/veh), C12orf56 (ProbeSet 11735607_a_at) / Fold change (ACY-1035/veh), C12orf56 (ProbeSet 11735607_a_at) / Fold change (Aza/veh), FGFR1OP (ProbeSet 11751329_s_at) / Fold change (ACY-1035/veh), FGFR1OP (ProbeSet 11751329_s_at) / Fold change (Aza/veh), VPS36 (ProbeSet 11739960_a_at) / Fold change (ACY-1035/veh), VPS36 (ProbeSet 11739960_a_at) / RFU SYPL1 (11715823_x_at) / Fold change /veh SYPL1 (11715823_x_at) / RFU IGFBP7 (11715501_s_at) / Fold change /veh IGFBP7 (11715501_s_at) / RFU REEP3 (11722064_at) / Fold change /veh REEP3 (11722064_at) / RFU IGLL1 (11728026_x_at) / Fold change /veh IGLL1 (11728026_x_at): dose or concentration left out as unconfirmed", "conditions": "MV-4-11 cells, 48 hours", "data": [{"smiles": "Nc1ncn([C@@H]2O[C@H](CO)[C@@H](O)[C@H]2O)c(=O)n1", "note": "[azacitidine]", "values": [{"measurement": "RFU IGLL1 (11728026_x_at)", "result": 12.85, "unit": "RFU"}]}]}
